Measurements as given in PubChem BioAssay (NCI).
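Assay format: 96-well plates, 48-hour exposure. TGI: total growth inhibition.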

Experiments:
Assay in all cases: NCI tumour cell line growth inhibition, 48 h
M14 melanoma = test system: M14 melanoma
SNB-75 CNS = test system: SNB-75 CNS
NCI-H522 lung = test system: NCI-H522 lung
HOP-92 NSCLC = test system: HOP-92 NSCLC
COLO 205 colon = test system: COLO 205 colon
SF-539 CNS = test system: SF-539 CNS
BT-549 breast = test system: BT-549 breast
SK-MEL-5 melanoma = test system: SK-MEL-5 melanoma
UO-31 renal = test system: UO-31 renal
RPMI-8226 leukemia = test system: RPMI-8226 leukemia
OVCAR-3 ovarian = test system: OVCAR-3 ovarian
SN12C renal = test system: SN12C renal
OVCAR-5 ovarian = test system: OVCAR-5 ovarian
NCI-H460 lung = test system: NCI-H460 lung
CAKI-1 renal = test system: CAKI-1 renal
HCT-116 colon = test system: HCT-116 colon
SK-OV-3 ovarian = test system: SK-OV-3 ovarian
EKVX NSCLC = test system: EKVX NSCLC
MCF7 breast = test system: MCF7 breast
SR leukemia = test system: SR leukemia
IGROV1 ovarian = test system: IGROV1 ovarian
HCC-2998 colon = test system: HCC-2998 colon
OVCAR-4 ovarian = test system: OVCAR-4 ovarian
PC-3 prostate = test system: PC-3 prostate
HT29 colon = test system: HT29 colon
U251 CNS = test system: U251 CNS
OVCAR-8 ovarian = test system: OVCAR-8 ovarian
MDA-N = test system: MDA-N
MDA-MB-231 breast = test system: MDA-MB-231 breast
SW-620 colon = test system: SW-620 colon
ACHN renal = test system: ACHN renal
UACC-62 melanoma = test system: UACC-62 melanoma
786-0 renal = test system: 786-0 renal
HOP-62 NSCLC = test system: HOP-62 NSCLC
SF-268 CNS = test system: SF-268 CNS
CCRF-CEM leukemia = test system: CCRF-CEM leukemia
MALME-3M melanoma = test system: MALME-3M melanoma
A498 renal = test system: A498 renal
SNB-19 CNS = test system: SNB-19 CNS
UACC-257 melanoma = test system: UACC-257 melanoma
MDA-MB-435 = test system: MDA-MB-435
MOLT-4 leukemia = test system: MOLT-4 leukemia
LOX IMVI melanoma = test system: LOX IMVI melanoma
SK-MEL-28 melanoma = test system: SK-MEL-28 melanoma
SK-MEL-2 melanoma = test system: SK-MEL-2 melanoma
SF-295 CNS = test system: SF-295 CNS
RXF 393 renal = test system: RXF 393 renal
K-562 leukemia = test system: K-562 leukemia
HCT-15 colon = test system: HCT-15 colon
DU-145 prostate = test system: DU-145 prostate
A549 NSCLC = test system: A549 NSCLC
T-47D breast = test system: T-47D breast
KM12 colon = test system: KM12 colon
NCI/ADR-RES ovarian = test system: NCI/ADR-RES ovarian
TK-10 renal = test system: TK-10 renal
HS 578T breast = test system: HS 578T breast
NCI-H226 lung = test system: NCI-H226 lung
NCI-H23 lung = test system: NCI-H23 lung
HL-60(TB) leukemia = test system: HL-60(TB) leukemia
SNB-78 CNS = test system: SNB-78 CNS
DLD-1 colon = test system: DLD-1 colon
DMS 273 small cell lung = test system: DMS 273 small cell lung
M19-MEL melanoma = test system: M19-MEL melanoma
LXFL 529 NSCLC = test system: LXFL 529 NSCLC
XF 498 CNS = test system: XF 498 CNS
DMS 114 small cell lung = test system: DMS 114 small cell lung

Structure (SMILES): Clc1ccc(N=C/C=C/Nc2ccc(Cl)cn2)nc1
- TGI (M14 melanoma): 30.2 µM
- TGI (SNB-75 CNS): 25.7 µM
- TGI (NCI-H522 lung): 28.4 µM
- TGI (HOP-92 NSCLC): 30.1 µM
- TGI (COLO 205 colon): 25.3 µM
- TGI (SF-539 CNS): 31.3 µM
- TGI (BT-549 breast): 31 µM
- TGI (SK-MEL-5 melanoma): 27.5 µM
- TGI (UO-31 renal): 29.2 µM
- TGI (RPMI-8226 leukemia): 37.1 µM
- TGI (OVCAR-3 ovarian): 26.6 µM
- TGI (SN12C renal): 28.6 µM
- TGI (OVCAR-5 ovarian): 30 µM
- TGI (NCI-H460 lung): 32.7 µM
- TGI (CAKI-1 renal): 25.1 µM
- TGI (HCT-116 colon): 25 µM
- TGI (SK-OV-3 ovarian): 36.6 µM
- TGI (EKVX NSCLC): 13.9 µM
- TGI (MCF7 breast): 31.6 µM
- TGI (SR leukemia): 6.69 µM
- TGI (IGROV1 ovarian): 28.9 µM
- TGI (HCC-2998 colon): 0.922 µM
- TGI (OVCAR-4 ovarian): 25.7 µM
- TGI (PC-3 prostate): 27.6 µM
- TGI (HT29 colon): 22.1 µM
- TGI (U251 CNS): 20.7 µM
- TGI (OVCAR-8 ovarian): 23.3 µM
- TGI (MDA-N): 28.4 µM
- TGI (MDA-MB-231 breast): 16.2 µM
- TGI (SW-620 colon): 16.9 µM
- TGI (ACHN renal): 25.1 µM
- TGI (UACC-62 melanoma): 26.2 µM
- TGI (786-0 renal): 18.3 µM
- TGI (HOP-62 NSCLC): 31 µM
- TGI (SF-268 CNS): 30.6 µM
- TGI (CCRF-CEM leukemia): 9.41 µM
- TGI (MALME-3M melanoma): 31.2 µM
- TGI (A498 renal): 34.7 µM
- TGI (SNB-19 CNS): 30.1 µM
- TGI (UACC-257 melanoma): 32.3 µM
- TGI (MDA-MB-435): 27.6 µM
- TGI (MOLT-4 leukemia): 19.4 µM
- TGI (LOX IMVI melanoma): 19.8 µM
- TGI (SK-MEL-28 melanoma): 32.9 µM
- TGI (SK-MEL-2 melanoma): 29.2 µM
- TGI (SF-295 CNS): 30.6 µM
- TGI (RXF 393 renal): 34.9 µM
- TGI (K-562 leukemia): 23.2 µM
- TGI (HCT-15 colon): 13 µM
- TGI (DU-145 prostate): 31.6 µM
- TGI (A549 NSCLC): 29.1 µM
- TGI (T-47D breast): 40.9 µM
- TGI (KM12 colon): 21 µM
- TGI (NCI/ADR-RES ovarian): 32.6 µM
- TGI (TK-10 renal): 34.9 µM
- TGI (HS 578T breast): 23.3 µM
- TGI (NCI-H226 lung): 31.2 µM
- TGI (NCI-H23 lung): 32.8 µM
- TGI (HL-60(TB) leukemia): 3.91 µM

Structure (SMILES): CCCN1C(=O)C/C(=C\C(C)=O)Nc2ccccc21
- TGI (M14 melanoma): > 100 µM
- TGI (SNB-75 CNS): > 100 µM
- TGI (NCI-H522 lung): > 100 µM
- TGI (HOP-92 NSCLC): > 100 µM
- TGI (COLO 205 colon): > 100 µM
- TGI (SF-539 CNS): > 100 µM
- TGI (SK-MEL-5 melanoma): > 100 µM
- TGI (UO-31 renal): > 100 µM
- TGI (OVCAR-3 ovarian): > 100 µM
- TGI (SN12C renal): > 100 µM
- TGI (OVCAR-5 ovarian): > 100 µM
- TGI (NCI-H460 lung): > 100 µM
- TGI (CAKI-1 renal): > 100 µM
- TGI (HCT-116 colon): > 100 µM
- TGI (SK-OV-3 ovarian): > 100 µM
- TGI (EKVX NSCLC): > 100 µM
- TGI (SR leukemia): > 100 µM
- TGI (IGROV1 ovarian): > 100 µM
- TGI (HCC-2998 colon): > 100 µM
- TGI (OVCAR-4 ovarian): > 100 µM
- TGI (HT29 colon): > 100 µM
- TGI (U251 CNS): > 100 µM
- TGI (OVCAR-8 ovarian): > 100 µM
- TGI (SW-620 colon): > 100 µM
- TGI (ACHN renal): > 100 µM
- TGI (UACC-62 melanoma): > 100 µM
- TGI (786-0 renal): > 100 µM
- TGI (HOP-62 NSCLC): > 100 µM
- TGI (SNB-78 CNS): > 100 µM
- TGI (SF-268 CNS): > 100 µM
- TGI (CCRF-CEM leukemia): > 100 µM
- TGI (MALME-3M melanoma): > 100 µM
- TGI (SNB-19 CNS): > 100 µM
- TGI (DLD-1 colon): > 100 µM
- TGI (MOLT-4 leukemia): > 100 µM
- TGI (LOX IMVI melanoma): > 100 µM
- TGI (SK-MEL-28 melanoma): > 100 µM
- TGI (DMS 273 small cell lung): > 100 µM
- TGI (SK-MEL-2 melanoma): > 100 µM
- TGI (SF-295 CNS): > 100 µM
- TGI (M19-MEL melanoma): > 100 µM
- TGI (RXF 393 renal): > 100 µM
- TGI (K-562 leukemia): > 100 µM
- TGI (HCT-15 colon): > 100 µM
- TGI (A549 NSCLC): > 100 µM
- TGI (KM12 colon): > 100 µM
- TGI (LXFL 529 NSCLC): > 100 µM
- TGI (TK-10 renal): > 100 µM
- TGI (XF 498 CNS): > 100 µM
- TGI (NCI-H226 lung): > 100 µM
- TGI (NCI-H23 lung): > 100 µM
- TGI (DMS 114 small cell lung): > 100 µM
